Reference: US9193731B2, “Antimicrobial compounds and methods of making and using the same” (Melinta Therapeutics, Inc., priority 2009, dated 2015)

Each compound was assayed on Escherichia coli strain ATCC25922 (assay: standard microdilution assay to determine minimum inhibitory concentrations (MICs)). Settings: Escherichia coli strain ATCC25922, microdilution.
Assay type: cell-based
Outline: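 Broth microdilution MIC against E. coli ATCC25922, following CLSI protocols, typically in a 100 microliter final volume. Results reported as +/− relative to a 16 micrograms/ml cutoff.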

| Structure (SMILES) | E. coli ATCC25922 MIC |
| --- | --- |
| N=C(N)NCCCNC(=O)c1ccc(-n2cc3cc(-c4ccc(S(=O)(=O)NC5CCNC5)cc4)[nH]c3nc2=O)cc1 (stereo not shown) [Compound 1310] | + (a “+” indicates that the compound has an MIC value of 16 micrograms/ml or less) |
| CC(C)(CN)COc1cccc(-c2cc3cn(-c4ccc(CNCCCNC(=N)N)cc4)c(=O)nc3[nH]2)c1 [Compound 1327] | + (a “+” indicates that the compound has an MIC value of 16 micrograms/ml or less) |
| COc1cc(-n2cc3cc(-c4cccc(OCC(C)(C)CN)c4)[nH]c3nc2=O)ccc1CNCCCNC(=N)N [Compound 1328] | + (a “+” indicates that the compound has an MIC value of 16 micrograms/ml or less) |
| N=C(N)NCCCNCc1ccc(-n2cc3cc(-c4ccc(S(=O)(=O)CCCNC5CCNC5)cc4)[nH]c3nc2=O)cc1 (stereo not shown) [Compound 1330] | + (a “+” indicates that the compound has an MIC value of 16 micrograms/ml or less) |
| N=C(N)NCCCNC(=O)c1ccc(-n2cc3cc(-c4ccc(S(=O)(=O)CCCNC5CCNC5)cc4)[nH]c3nc2=O)cc1 (stereo not shown) [Compound 1350] | + (a “+” indicates that the compound has an MIC value of 16 micrograms/ml or less) |
| CNCc1ccc(-n2cc3cc(-c4ccc(S(=O)(=O)N(CCCc5cn[nH]c5)C5CCNCC5)cc4)[nH]c3nc2=O)cc1 [Compound 1351] | − (a “−” indicates that the compound has an MIC value greater than 16 micrograms/ml) |
| CC(C)(CN)COc1cccc(-c2cc3cn(-c4ccc(CNCCCNC(=N)N)c(F)c4)c(=O)nc3[nH]2)c1 [Compound 1361] | + (a “+” indicates that the compound has an MIC value of 16 micrograms/ml or less) |
| N=C(N)NCCCNCc1ccc(-n2cc3cc(-c4cccc(CCCCN)c4)[nH]c3nc2=O)cc1 [Compound 1380] | + (a “+” indicates that the compound has an MIC value of 16 micrograms/ml or less) |
| N=C(N)NCCCNCc1ccc(-n2cc3cc(C4CN(CCCCN)CCO4)[nH]c3nc2=O)cc1 (stereo not shown) [Compound 1381] | + (a “+” indicates that the compound has an MIC value of 16 micrograms/ml or less) |
| N=C(N)NCCCNCc1ccc(-n2cc3cc(-c4cccc(OCC(F)CN)c4)[nH]c3nc2=O)cc1 (stereo not shown) [Compound 1390] | + (a “+” indicates that the compound has an MIC value of 16 micrograms/ml or less) |
| COc1cc(-n2cc3cc(-c4cccc(OCC(F)CN)c4)[nH]c3nc2=O)ccc1CNCCCNC(=N)N (stereo not shown) [Compound 1391] | + (a “+” indicates that the compound has an MIC value of 16 micrograms/ml or less) |
| N=C(N)NCCCNCc1ccc(-n2cc3cc(CCNC4CNC4)[nH]c3nc2=O)cc1 [Compound 1398] | + (a “+” indicates that the compound has an MIC value of 16 micrograms/ml or less) |
| N=C(N)NCCCNC(=O)c1ccc(-n2cc3cc(-c4cccc(OC[C@@H](O)CN)c4)[nH]c3nc2=O)cc1 [Compound 1399] | + (a “+” indicates that the compound has an MIC value of 16 micrograms/ml or less) |
| COC(CN)COc1cccc(-c2cc3cn(-c4ccc(CNCCCNC(=N)N)cc4)c(=O)nc3[nH]2)c1 (stereo not shown) [Compound 1400] | + (a “+” indicates that the compound has an MIC value of 16 micrograms/ml or less) |
| N=C(N)NCCCNCc1ccc(-n2cc3cc(-c4cccc(OCC(F)(F)CN)c4)[nH]c3nc2=O)cc1 [Compound 1404] | − (a “−” indicates that the compound has an MIC value greater than 16 micrograms/ml) |
| N=C(N)NCCCNCc1ccc(-n2cc3cc(-c4cccc(SCCCN)c4)[nH]c3nc2=O)cc1 [Compound 1405] | + (a “+” indicates that the compound has an MIC value of 16 micrograms/ml or less) |

Same assay, conditions: Escherichia coli, ATCC25922, Escherichia coli strain ATCC25922, microdilution; read-out: E. coli ATCC25922 MIC

| Structure (SMILES) | MIC [µg/mL] |
| --- | --- |
| N=C(N)NCCCNCc1ccc(C2N=c3cc(C4CNCCO4)[nH]c3=NC2=O)cc1 (stereo not shown) [Compound 1329] | > 16 |
| N=C(N)NCCCNCc1ccc(C2N=c3cc(-c4cccc(O)c4)[nH]c3=NC2=O)cc1 (stereo not shown) [Compound 1334] | < 16 |
| N=C(N)NCCCNCc1ccc(-n2cc3cc(C4CN(C(=N)N)CCO4)[nH]c3nc2=O)cc1 (stereo not shown) [Compound 1335] | < 16 |
